Source: patent US20230226137A1, “Novel Pharmaceutical Composition for Treating Dry Eye Syndrome” (Novacell Technology Inc., priority 2020, published 2023)
Non-standard residues stand in square brackets, D forms with d. Residues, ends and D or L forms follow the SMILES beside them. *: point of attachment. Octanoyl = CCCCCCCC(=O)*

How the values were obtained:
Format in all cases: cell-based
FPR2 = target: T1, FPR2 (Homo sapiens, UniProt P25090); assay: FPR2 activation, intracellular calcium (Fura-2/AM) in RBL cells overexpressing FPR2; details: calcium ion increase in FPR2-overexpressing RBL cells
T1 construct: expressed in transfected cells; host or cells: RBL cells (FPR2-overexpressing)
T1 sequence (P25090 1-351): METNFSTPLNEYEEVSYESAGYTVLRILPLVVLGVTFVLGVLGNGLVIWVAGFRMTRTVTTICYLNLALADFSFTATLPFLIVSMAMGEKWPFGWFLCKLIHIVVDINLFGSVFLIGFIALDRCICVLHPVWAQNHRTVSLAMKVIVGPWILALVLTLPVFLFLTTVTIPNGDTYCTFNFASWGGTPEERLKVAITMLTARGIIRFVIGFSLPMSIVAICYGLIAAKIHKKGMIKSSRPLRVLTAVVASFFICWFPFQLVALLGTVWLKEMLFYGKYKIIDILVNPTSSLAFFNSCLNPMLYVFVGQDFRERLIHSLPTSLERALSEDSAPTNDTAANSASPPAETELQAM
Description: The present inventors have observed changes in calcium ion permeability in order to confirm whether or not the immunomodulatory and antibacterial peptide candidates of the present invention activates the immunomodulatory function of a living organism. Specifically, the concentration of calcium ions in cells was measured in order to confirm whether the peptide activates FPR2. To this end, the present inventors used RBL cells in which FPR2 was not expressed, RBL cells in which FPR1 was overexpressed (FPR1-RBL), and RBL cells in which FPR2 was overexpressed, and used Fura-2/AM, a staining material having a strong binding affinity for calcium, in a method for sensitively measuring free intracellular calcium ions. That is, the cells were cultured in RPMI medium containing 10% fetal bovine serum, centrifuged in the mid-log phase (1-3×10^7 cells/mL), and harvested. Then, the cells were washed several times with RPMI medium containing no fetal bovine serum and resuspended in RPMI medium to a concentration of 1×10^7 cells/mL. Then, the Fura-2/AM at a final concentration of 3 μM was added thereto and incubated in an incubator (37° C., 5% CO2) for 45 minutes with continuous stirring. After the appropriate time elapsed, the cells were harvested and washed again several times with RPMI medium. Then, the cells were suspended in an appropriate amount of RPMI medium, in which sulfinpyrazone was supplemented at a concentration of 250 μM, so as to prevent the Fura-2 that entered into the cells from being released to the outside of the cells. Approximately 2×10^6 cells were taken each time and harvested by rapid centrifugation and resuspended in 1 mL of Locke solution in which EGTA was added but no calcium ions were added, and the absorbance ratios at two wavelengths of 340 nm and 380 nm were monitored on a spectrophotometer. After treating with the peptide according to the present invention at different concentrations (1 μM, 0.1 μM, and 0.01 μM) at intervals of about 1 minute, the difference in absorbance at two wavelengths was examined and this was later converted to the concentration of calcium ions freed into the cells according to the method of Grynkiewicz.

Pseudomonas aeruginosa = details: 18 h
Description: (§1) In addition, in order to measure the antibacterial activity of the peptide, Staphylococcus aureus, which is a gram-positive bacterium, and Pseudomonas aeruginosa, which is a gram-negative bacterium, were prepared, followed by 4th smearing on a flat medium of an agar, and culturing was performed overnight in a 36° C. incubator. The next day, strain colonies generated on the agar plate medium were inoculated into 3 mL-nutrient broth and cultured overnight in a shaking incubator at 36° C. and 220 rpm. The next day, the bacteria were diluted to measure absorbance at 600 nm, the absorbance was adjusted to 0.5, and the bacteria were diluted in a nutrient broth at a ratio of 1:100. Then, the peptides prepared in the Example were sequentially diluted in a nutrient broth at concentrations of 0, 1.25, 2.5, 5, 10, 20, and 40 μM, prepared 1 mL each, and then 1 mL of the diluted bacteria was inoculated. Then, the mixture was stirred at 36° C. and 220 rpm and incubated for 18 hours, and then the absorbance was measured at 600 nm.

Staphylococcus aureus = details: 18 h
Description: as §1

Row | EC50 (FPR2) | IC50 (Pseudomonas aeruginosa) | IC50 (Staphylococcus aureus) | Structure (SMILES)
1 | 90.7 nM | 25.4 µM | 4.86 µM | CCCCCCCC(=O)N[C@@H](CCCNC(=N)N)C(=O)N[C@@H](Cc1c[nH]c2ccccc12)C(=O)N[C@@H](CCCNC(=N)N)C(=O)N[C@@H](Cc1c[nH]c2ccccc12)C(=O)N[C@@H](CCCNC(=N)N)C(=O)N[C@@H](Cc1ccc(O)cc1)C(=O)N[C@H](CCSC)C(N)=O [compound 5] (Octanoyl-RWRWRY[dM]-NH2)
2 | 65.4 nM | 7.41 µM | 19.8 µM | CSCC[C@@H](NC(=O)[C@H](Cc1ccc(O)cc1)NC(=O)[C@H](CCCNC(=N)N)NC(=O)[C@H](Cc1c[nH]c2ccccc12)NC(=O)[C@H](CCCCN)NC(=O)[C@H](Cc1ccccc1)NC(=O)[C@@H](N)CCCCN)C(N)=O [compound 3] (H-KFKWRY[dM]-NH2)
3 | 30.3 nM | 6.43 µM | 39.9 µM | CSCC[C@@H](NC(=O)[C@H](Cc1ccc(O)cc1)NC(=O)[C@H](CCCNC(=N)N)NC(=O)[C@H](Cc1c[nH]c2ccccc12)NC(=O)[C@H](CCCNC(=N)N)NC(=O)[C@H](Cc1c[nH]c2ccccc12)NC(=O)[C@@H](N)CCCNC(=N)N)C(N)=O [compound 6] (H-RWRWRY[dM]-NH2)
4 | 92.9 nM | 4.69 µM | 21 µM | CCCCCCCC(=O)N[C@@H](CCCCN)C(=O)N[C@@H](Cc1ccccc1)C(=O)N[C@@H](CCCCN)C(=O)N[C@@H](Cc1c[nH]c2ccccc12)C(=O)N[C@@H](CCCNC(=N)N)C(=O)N[C@@H](Cc1ccc(O)cc1)C(=O)N[C@H](CCSC)C(N)=O [compound 2] (Octanoyl-KFKWRY[dM]-NH2)
5 | 108 nM | 8.48 µM | 12.3 µM | CCCCCCCC(=O)N[C@@H](CCCCN)C(=O)N[C@@H](Cc1c[nH]c2ccccc12)C(=O)N[C@@H](CCCCN)C(=O)N[C@@H](Cc1c[nH]c2ccccc12)C(=O)N[C@@H](CCCNC(=N)N)C(=O)N[C@@H](Cc1ccc(O)cc1)C(=O)N[C@H](CCSC)C(N)=O [compound 4] (Octanoyl-KWKWRY[dM]-NH2)
